Source: patent US20240299593A1, “SYSTEMS AND METHODS FOR GENERATION OF HYPERPOLARIZED MATERIALS” (NVISION IMAGING TECHNOLOGIES GMBH, priority 2021, published 2024)
Counter-ions that a name gives are not always drawn. Like-named read-outs stand apart in the source and are kept apart here.

How the values were obtained:
[1] = ICH toxicity limits, cited from earlier work; for Limits: residual solvent concentration in carrier; for Permissible Daily Exposure: residual solvent
[2] = SABRE catalyst in acetone extraction study (proton NMR of both phases); format: physicochemical; conditions: 1 ml Acetone-d6, 6 ml MTBE, 1 ml D2O
[3] = format: physicochemical; conditions: for extraction efficiency (output/input acetone concentration in water): organic wash:aqueous 4:1; for extraction efficiency, comparison in words: with and without pyruvate in solution
[4] = Liquid-liquid purification system, Example 1 (samples of phases analyzed)
Procedure: A system was prepared comprising a first vessel, a second vessel fluidly connected to the first vessel, and a third vessel fluidly connected to the second vessel. The vessels and the fluid path were covered by a defined magnetic field provided by solenoids to prevent undesired hyperpolarisation loss during the processing of a solution through the system.
The mixture was bubbled with nitrogen gas, and 1.0 mL of base (400 mM NaOD in D2O) was injected into Vessel 1 to cleave the pyruvate ester into sodium pyruvate and the corresponding unbonded sidearm.
The solution in Vessel 1 was then subjected to a first washing step. 20 mL of organic washing solvent (e.g., diethyl ether or tert-butyl methyl ether) were injected into the solution, and then agitated using nitrogen gas bubbling. The mixture was then allowed to settle for about 10 seconds until a clear phase separation between the aqueous phase (lower phase) and the organic phase (upper phase) had formed.
The aqueous phase from Vessel 1 was pumped into Vessel 2, which had been prefilled with 20 mL of the same organic washing solvent (e.g., diethyl ether or tert-butyl methyl ether). The mixture was again agitated using nitrogen gas bubbling, and allowed to settle for about 10 seconds until a clear phase separation between the aqueous phase (lower phase) and the organic phase (upper phase) had formed. […]

Row | Molecule | Limits [1] | Permissible Daily Exposure [1] | other results
1 | CC(Cl)(Cl)Cl [1,1,1-Trichloroethane] | 1500 ppm |  | 
2 | ClC=C(Cl)Cl [1,1,2-Trichloroethene] | 80 ppm | 0.8 mg/day | 
3 | C=C(Cl)Cl [1,1-Dichloroethene] | 8 ppm |  | 
4 | ClCCCl [1,2-Dichloroethane] | 5 ppm |  | 
5 | COCCOC [1,2-Dimethoxyethane] | 100 ppm | 1.0 mg/day | 
6 | CCCCCO [1-Pentanol] | 5000 ppm | 50 mg/day | 
7 | CCOCCO [2-Ethoxyethanol] | 160 ppm | 1.6 mg/day | 
8 | CC(=O)O [Acetic acid] | 5000 ppm |  | 
9 | CC(C)=O [Acetone] | 5000 ppm | 50 mg/day | concentration in the aqueous phase after washing [2]: lower in the aqueous phase after washing
10 | CC#N [Acetonitrile] | 410 ppm | 4.1 mg/day | 
11 | COc1ccccc1 [Anisole] | 5000 ppm | 50 mg/day | 
12 | CCCCOC(C)=O [Butyl acetate] | 5000 ppm | 50 mg/day | 
13 | ClC(Cl)(Cl)Cl [Carbon tetrachloride] | 4 ppm |  | 
14 | C1CCCCC1 [Cyclohexane] | 3880 ppm | 38.8 mg/day | 
15 | ClCCl [Dichloromethane] | 600 ppm | 6.0 mg/day | extraction efficiency (output/input acetone concentration in water) ([3]; 2000 mM acetone, With Pyruvate): 0.04; extraction efficiency (output/input acetone concentration in water) ([3]; 9000 mM acetone, No Pyruvate): 0.07; extraction efficiency (output/input acetone concentration in water) ([3]; 9000 mM acetone, With Pyruvate): 0.06; extraction efficiency, comparison in words [3]: best extraction efficiency
16 | CCOCC [Diethyl ether] |  |  | extraction efficiency (output/input acetone concentration in water) ([3]; 9000 mM acetone, No Pyruvate): 0.29; extraction efficiency, comparison in words [3]: effective extraction efficiency
17 | C[S+](C)[O-] [Dimethyl sulfoxide] | 5000 ppm | 50 mg/day | 

Row | Molecule | Limits [1] | Permissible Daily Exposure [1] | other results
18 | CCO [Ethanol] | 5000 ppm | 50 mg/day | 
19 | CCOC=O [Ethyl formate] | 5000 ppm | 50 mg/day | 
20 | NC=O [Formamide] | 220 ppm | 2.2 mg/day | 
21 | CCCCCCC [Heptane] | 5000 ppm | 50 mg/day | 
22 | CCCCCC [Hexane] | 290 ppm | 2.9 mg/day | 
23 | COC(C)=O [Methyl acetate] | 5000 ppm | 50 mg/day | 
24 | CCCCC(C)=O [Methylbutyl ketone] | 50 ppm | 0.5 mg/day | 
25 | CC1CCCCC1 [Methylcyclohexane] | 1180 ppm | 11.8 mg/day | 
26 | CC(=O)CC(C)C [Methylisobutyl ketone] | 5000 ppm | 50 mg/day | 
27 | CN(C)C=O [N,N-Dimethylformamide] | 880 ppm |  | 
28 | CN1CCCC1=O [N-Methylpyrrolidone] | 530 ppm | 15.3 mg/day | 
29 | CCCOC(C)=O [Propyl acetate] | 5000 ppm | 50 mg/day | 
30 | c1ccc2c(c1)CCCC2 [Tetralin] | 100 ppm | 1.0 mg/day | 
31 | CC(=O)C(=O)[O-].[Na+] [sodium pyruvate] |  |  | pH ([4]; Vessel 1, after hydrolysis and phosphate buffer, acetone/D2O): 6-9; pH ([4]; Vessel 3, final samples): 6-9
32 | COC(C)(C)C [tert-Butylmethyl ether] | 5000 ppm | 50 mg/day | extraction efficiency (output/input acetone concentration in water) ([3]; 2000 mM acetone, No Pyruvate): 0.33; extraction efficiency (output/input acetone concentration in water) ([3]; 2000 mM acetone, With Pyruvate): 0.27; extraction efficiency (output/input acetone concentration in water) ([3]; 9000 mM acetone, No Pyruvate): 0.24; extraction efficiency (output/input acetone concentration in water) ([3]; 9000 mM acetone, With Pyruvate): 0.23; extraction efficiency, comparison in words [3]: effective extraction efficiency
33 | IrIMes(COD) PF6 |  |  | concentration in the aqueous phase after washing [2]: lower in the aqueous phase after washing; observability in NMR spectrum of the phases [2]: observable only in one of the phases and not in the other
34 | Xylene | 2170 ppm | 21.7 mg/day | 
